In brackets after ≈: the same amount, converted by molar mass. Read-outs that look alike come from different tables or passages of the source.
What was measured:
E. coli PBP3 = E. coli PBP3 (Escherichia coli (strain K12), UniProt P0AD68); assay: E. coli PBP3 Bocillin-FL fluorescence polarization competition binding assay
Procedure, shortened: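 FP competition: 1.5 μM PBP, 0.1 μM Bocillin-FL, cpd 0–1000 μM; 50 mM Hepes pH 8.0/300 mM NaCl/5% glycerol. Read 490/520 nm immediately after Bocillin-FL addition, 60 min. EC50 = cpd conc. lowering probe binding.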

E. coli ATCC 25922 = assay: Broth microdilution MIC, E. coli ATCC 25922; format: cell-based; conditions: Escherichia coli, ATCC25922; E. coli ATCC 25922, broth microdilution; read-out: MIC E. coli 25922
Procedure, shortened: (§1)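 Colonies from Mueller Hinton II agar were grown 3-5 hours at 37° C in cation-supplemented broth, adjusted by OD600, then added to 2-fold compound dilutions at 5×10^5 CFU/mL. After 16-20 hours at 37° C, MICs were scored visually.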

E. coli AG100 = assay: Broth microdilution MIC, E. coli AG100 (wild-type parent); format: cell-based; conditions: Escherichia coli; wild-type parent E. coli AG100, broth microdilution; read-out: MIC E. coli AG100
Procedure, shortened: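 Starting inoculum of 5×10^5 CFU/mL, from colonies grown 3-5 h in Mueller-Hinton broth with divalent cations, added to two-fold compound dilution series.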

E. coli 901C = assay: microbe, parasite or virus in culture; format: cell-based; conditions: Escherichia coli; hyper-permeable E. coli 901C, broth microdilution; read-out: MIC E. coli 901C
Procedure, shortened: as §1

E. coli AG100A = assay: microbe, parasite or virus in culture; format: cell-based; conditions: Escherichia coli, read-out: MIC E. coli AG100A
Procedure, shortened: as §1

E. coli D22 = assay: microbe, parasite or virus in culture; format: cell-based; conditions: Escherichia coli; hyper-permeable E. coli D22, broth microdilution; read-out: MIC E. coli D22
Procedure, shortened: as §1

K. pneumoniae SI-117 = assay: microbe, parasite or virus in culture; format: cell-based; conditions: Klebsiella pneumoniae, SI117, read-out: MIC K. pneumoniae SI-117
Procedure, shortened: as §1

K. pneumoniae UMM = assay: microbe, parasite or virus in culture; format: cell-based; conditions: Klebsiella pneumoniae; K. pneumoniae UMM producing SHV-5 and KPC-2; read-out: MIC K. pneumoniae UMM
Procedure, shortened: as §1

K. pneumoniae 848844 = assay: microbe, parasite or virus in culture; format: cell-based, Klebsiella pneumoniae; conditions: Klebsiella pneumoniae; K. pneumoniae 848844 producing SHV-11 and KPC-2; read-out: MIC K. pneumoniae 848844
Procedure, shortened: as §1

[1] = system: N. gonorrhoeae ATCC 49226; assay: Liquid broth MIC, N. gonorrhoeae ATCC 49226; format: cell-based; conditions: Neisseria gonorrhoeae, ATCC49226; N. gonorrhoeae ATCC 49226, liquid broth; read-out: Minimum Inhibitory Concentration, N. gonorrhoeae ATCC 49226
Description: (§2) Additional antibacterial testing of the series was performed in wild-type reference strains of N. gonorrhoeae (ATCC 49226, FA1090, WHO F and FA19). Liquid broth-based assays were used for antibacterial testing of PBP inhibitors in Neisseria gonorrhoeae. Briefly, cryo-preserved bacterial cultures of clinical strains are streaked for isolation on GC Base agar (BD #228950 at 36 g/L autoclaved at 121° C. for 20 minutes to sterilize) with 1% Kellogg's supplement (40 g glucose, 0.5 g glutamine, 0.05 g ferric nitrate and 2 mg cocarboxylase per 100 mL deionized water filter sterilized through 0.2 μm syringe filters). Following incubation at 36° C. and 5% CO2 to allow growth of colonies, strains are aseptically sub-cultured from original agar plate onto 3 agar plates per strain 24 hours before inoculum preparation. 2-fold serial dilutions of test compounds are conducted in a 96 well plate with a final volume of 150 μL per well at 4/3-fold the final desired concentration. For preparation of assay inoculum, a direct suspension is prepared by aseptically swabbing all colonies from sub-cultured agar plates into culture tubes containing 2 mL of fresh GC broth with […]. After the dilution plates are set up, direct suspensions are then diluted in a cuvette containing GC broth (15 g proteose peptone 43, 1 g corn starch, 4 g dipotassium phosphate, 1 g monopotassium phosphate and 5 g sodium chloride per liter of deionized water are mixed on a stir plate for 20 minutes, pH adjusted to 7.2+/−0.2 pH units with 1 N HCl, centrifuged at 10,000×g for 20 minutes to pellet undissolved corn starch and then autoclaved at 121° C. for 20 minutes to sterilize) and the optical density is measured at 600 nm. Inocula are diluted such that 50 μL of this culture in […] results in a starting bacterial concentration of 5×10^5 CFU/mL when added to the dilution plates. The plates are incubated 40-42 hours at 36° C. and 5% CO2. The MIC is read visually as the lowest concentration well with no bacterial growth.

N. gonorrhoeae FA1090 = assay: Liquid broth MIC, N. gonorrhoeae FA1090; format: cell-based; conditions: Neisseria gonorrhoeae; N. gonorrhoeae FA1090, liquid broth; read-out: Minimum Inhibitory Concentration, N. gonorrhoeae FA1090
Description: as §2

N. gonorrhoeae WHO F = assay: Liquid broth MIC, N. gonorrhoeae WHO F; format: cell-based; conditions: Neisseria gonorrhoeae; N. gonorrhoeae WHO F, liquid broth; read-out: Minimum Inhibitory Concentration, N. gonorrhoeae WHO F
Description: as §2

N. gonorrhoeae FA19 = assay: Liquid broth MIC, N. gonorrhoeae FA19; format: cell-based; conditions: Neisseria gonorrhoeae; N. gonorrhoeae FA19, liquid broth; read-out: Minimum Inhibitory Concentration, N. gonorrhoeae FA19
Description: as §2

[2] = fluorescence polarization competition binding with Bocillin-FL, read-out: E. coli K12 PBP3 Potency

Chain of E. coli PBP3 (P0AD68 whole entry): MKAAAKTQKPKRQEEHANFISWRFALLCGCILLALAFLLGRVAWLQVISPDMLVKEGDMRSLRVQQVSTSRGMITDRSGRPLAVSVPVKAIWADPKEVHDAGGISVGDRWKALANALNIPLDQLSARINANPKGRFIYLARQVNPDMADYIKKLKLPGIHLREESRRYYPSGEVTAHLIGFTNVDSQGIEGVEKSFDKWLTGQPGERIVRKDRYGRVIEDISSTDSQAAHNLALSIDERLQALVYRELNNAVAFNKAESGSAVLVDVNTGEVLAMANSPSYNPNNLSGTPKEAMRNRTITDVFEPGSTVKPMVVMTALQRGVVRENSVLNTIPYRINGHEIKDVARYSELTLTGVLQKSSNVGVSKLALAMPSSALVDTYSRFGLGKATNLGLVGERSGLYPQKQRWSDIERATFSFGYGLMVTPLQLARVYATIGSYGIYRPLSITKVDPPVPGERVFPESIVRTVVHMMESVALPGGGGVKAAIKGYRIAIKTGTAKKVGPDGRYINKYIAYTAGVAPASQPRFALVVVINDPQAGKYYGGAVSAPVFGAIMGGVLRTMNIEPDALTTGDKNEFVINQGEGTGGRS

Row | Structure (SMILES) | EC50 (E. coli PBP3) [µM] | MIC (E. coli ATCC 25922) [µg/mL] | MIC (E. coli AG100) [µg/mL] | MIC (E. coli 901C) [µg/mL] | MIC (E. coli AG100A) [µg/mL] | MIC (E. coli D22) [µg/mL] | MIC (K. pneumoniae SI-117) [µg/mL] | MIC (K. pneumoniae UMM) [µg/mL] | MIC (K. pneumoniae 848844) [µg/mL] | MIC [1] [µg/mL] | MIC (N. gonorrhoeae FA1090) [µg/mL] | MIC (N. gonorrhoeae WHO F) [µg/mL] | MIC (N. gonorrhoeae FA19) [µg/mL] | EC50 (E. coli PBP3; [2]) [µM]
1 | CCN1CCN(C(=O)NC(C(=O)N[C@H]2Cc3cccc(C(=O)O)c3OB2O)c2ncc(N)cc2F)C(=O)C1=O (stereo partly drawn) [Example 214, (3R)-3-(2-(5-amino-3-fluoropyridin-2-yl)-2-(4-ethyl-2,3-dioxopiperazine-1-carboxamido)acetamido)-2-hydroxy-3,4-dihydro-2H-benzo[e][1,2]oxaborinine-8-carboxylic acid] | 30 to 500 | 8 to 16 | 32 to 64 | 0.5 to 1 | 2 to 4 | 2 to 4 | 32 to 64 | 32 to 64 | 32 to 64 | 4 to 8 (≈ 7.38 to 14.8 µM) | < 0.125 | < 0.125 | 4 to 8 (≈ 7.38 to 14.8 µM) | –
2 | O=C(O)c1cccc2c1OB(O)[C@@H](NC(=O)C(NC(=O)N1C[C@@H]3CCCN3C(=O)C1=O)c1ncc(O)cc1F)C2 (stereo partly drawn) [Example 223, (3R)-3-(2-((S)-3,4-dioxooctahydropyrrolo[1,2-a]pyrazine-2-carboxamido)-2-(3-fluoro-5-hydroxypyridin-2-yl)acetamido)-2-hydroxy-3,4-dihydro-2H-benzo[e][1,2]oxaborinine-8-carboxylic acid] | 30 to 500 | > 128 | > 128 | 8 to 16 | 32 to 64 | 32 to 64 | > 128 | > 128 | > 128 | > 64 | 1 to 2 (≈ 1.8 to 3.6 µM) | 1 to 2 (≈ 1.8 to 3.6 µM) | > 64 | –
3 | CCN1C[C@H](C)N(C(=O)NC(C(=O)N[C@H]2Cc3cccc(C(=O)O)c3OB2O)c2ncc(O)cc2F)C(=O)C1=O (stereo partly drawn) [Example 192, (3R)-3-(2-((S)-4-ethyl-6-methyl-2,3-dioxopiperazine-1-carboxamido)-2-(3-fluoro-5-hydroxypyridin-2-yl)acetamido)-2-hydroxy-3,4-dihydro-2H-benzo[e][1,2]oxaborinine-8-carboxylic acid] | – | 2 to 4 | 8 to 16 | < 0.25 | 0.5 to 1 | 0.5 to 1 | 32 to 64 | 8 to 16 | 32 to 64 | 1 to 2 (≈ 1.79 to 3.59 µM) | < 0.125 | < 0.125 | 1 to 2 (≈ 1.79 to 3.59 µM) | < 30
4 | CCN1CCN(C(=O)N[C@H](C(=O)N[C@H]2Cc3ccc(F)c(C(=O)O)c3OB2O)c2ccc(O)c(F)c2)C(=O)C1=O [Example 160, (R)-3-((S)-2-(4-ethyl-2,3-dioxopiperazine-1-carboxamido)-2-(3-fluoro-4-hydroxyphenyl)acetamido)-7-fluoro-2-hydroxy-3,4-dihydro-2H-benzo[e][1,2]oxaborinine-8-carboxylic acid] | 30 to 500 | > 128 | > 128 | 2 to 4 | > 128 | 32 to 64 | > 128 | > 128 | > 128 | 16 to 32 (≈ 28.6 to 57.1 µM) | 0.25 to 0.5 (≈ 0.446 to 0.892 µM) | 0.25 to 0.5 (≈ 0.446 to 0.892 µM) | 16 to 32 (≈ 28.6 to 57.1 µM) | –
5 | NS(=O)(=O)c1ccc(C(NC(=O)N2CCN(CCF)C(=O)C2=O)C(=O)N[C@H]2Cc3cccc(C(=O)O)c3OB2O)cc1F (stereo partly drawn) [Example 211, (3R)-3-(2-(3-fluoro-4-sulfamoylphenyl)-2-(4-(2-fluoroethyl)-2,3-dioxopiperazine-1-carboxamido)acetamido)-2-hydroxy-3,4-dihydro-2H-benzo[e][1,2]oxaborinine-8-carboxylic acid] | 30 to 500 | 32 to 64 | 32 to 64 | < 0.25 | 2 to 4 | 2 to 4 | > 128 | 32 to 64 | > 128 | 4 to 8 (≈ 6.42 to 12.8 µM) | 0.25 to 0.5 (≈ 0.401 to 0.802 µM) | 0.25 to 0.5 (≈ 0.401 to 0.802 µM) | 4 to 8 (≈ 6.42 to 12.8 µM) | –
6 | CCN1CCN(C(=O)NC(C(=O)N[C@H]2Cc3cccc(C(=O)O)c3OB2O)c2ccc(C(N)=O)cc2)C(=O)C1=O (stereo partly drawn) [Example 186, (3R)-3-(2-(4-carbamoylphenyl)-2-(4-ethyl-2,3-dioxopiperazine-1-carboxamido)acetamido)-2-hydroxy-3,4-dihydro-2H-benzo[e][1,2]oxaborinine-8-carboxylic acid] | 30 to 500 | 32 to 64 | 8 to 16 | < 0.25 | 2 to 4 | 0.5 to 1 | > 128 | 32 to 64 | > 128 | 1 to 2 (≈ 1.81 to 3.63 µM) | < 0.125 | < 0.125 | 1 to 2 (≈ 1.81 to 3.63 µM) | –
7 | O=C(O)c1cccc2c1OB(O)[C@@H](NC(=O)C(NC(=O)N1CCN(CCF)C(=O)C1=O)c1ncc(O)cc1F)C2 (stereo partly drawn) [Example 179, (3R)-3-(2-(3-fluoro-5-hydroxypyridin-2-yl)-2-(4-(2-fluoroethyl)-2,3-dioxopiperazine-1-carboxamido)acetamido)-2-hydroxy-3,4-dihydro-2H-benzo[e][1,2]oxaborinine-8-carboxylic acid] | – | 8 to 16 | 8 to 16 | < 0.25 | 0.5 to 1 | 0.5 to 1 | 8 to 16 | 2 to 4 | 32 to 64 | 0.25 to 0.5 (≈ 0.445 to 0.891 µM) | < 0.125 | < 0.125 | 4 to 8 (≈ 7.13 to 14.3 µM) | < 30

Source: patent US12173018B2, “Penicillin-binding protein inhibitors” (priority 2018, dated 2024)
